Patent US8633183B2 (priority 2010, dated 2014)

Biological target: PI3Kalpha (Homo sapiens (Human), UniProt P42336)
Settings: read-out: IC50 PI3K
Description: Plot the concentration of each compound versus the emission ratio. […] Determination of IC50 values can be obtained by curve fitting (sigmoidal dose response, variable slope) using Prism software from GraphPad).
Method Type: Filter-Binding-Assay
Compounds are serially diluted in assay buffer+6% DMSO and 10 μl of each dilution is added per well of a 96-well plate (compounds are tested in duplicates) and mixed with 30 μl of the lipid vesicles containing PDGFR-Peptide (0.5 μM final) and PI3K alpha (25 ng/well final). The mixture is then incubated for 20 minutes at room temperature. Subsequently, 20 μl of assay buffer containing 3 μM cold ATP and 0.5 μCi/20 μl 33P-ATP are added. The plates are then incubated at room temperature for 120 minutes (shaking with 300 rpm). The reaction mix is transferred onto filter plates using “filtermate harvester” from Packard: filter plates are rinsed with PBS, then the reaction mix is filtered onto the filter plate, washed 5 times with PBS and are allowed to dry for 30-60 minutes at 50° C.
As positive control serve wells containing vehicle controls (1% DMSO in assay buffer), showing non-inhibited kinase activity (high values). Wells containing assay buffer instead of enzyme can serve as control for background activity (low values).
Calculate IC50 values using the Smiley program (based on GrapPad Prism)

Sequence of PI3Kalpha (P42336 whole entry, looked up): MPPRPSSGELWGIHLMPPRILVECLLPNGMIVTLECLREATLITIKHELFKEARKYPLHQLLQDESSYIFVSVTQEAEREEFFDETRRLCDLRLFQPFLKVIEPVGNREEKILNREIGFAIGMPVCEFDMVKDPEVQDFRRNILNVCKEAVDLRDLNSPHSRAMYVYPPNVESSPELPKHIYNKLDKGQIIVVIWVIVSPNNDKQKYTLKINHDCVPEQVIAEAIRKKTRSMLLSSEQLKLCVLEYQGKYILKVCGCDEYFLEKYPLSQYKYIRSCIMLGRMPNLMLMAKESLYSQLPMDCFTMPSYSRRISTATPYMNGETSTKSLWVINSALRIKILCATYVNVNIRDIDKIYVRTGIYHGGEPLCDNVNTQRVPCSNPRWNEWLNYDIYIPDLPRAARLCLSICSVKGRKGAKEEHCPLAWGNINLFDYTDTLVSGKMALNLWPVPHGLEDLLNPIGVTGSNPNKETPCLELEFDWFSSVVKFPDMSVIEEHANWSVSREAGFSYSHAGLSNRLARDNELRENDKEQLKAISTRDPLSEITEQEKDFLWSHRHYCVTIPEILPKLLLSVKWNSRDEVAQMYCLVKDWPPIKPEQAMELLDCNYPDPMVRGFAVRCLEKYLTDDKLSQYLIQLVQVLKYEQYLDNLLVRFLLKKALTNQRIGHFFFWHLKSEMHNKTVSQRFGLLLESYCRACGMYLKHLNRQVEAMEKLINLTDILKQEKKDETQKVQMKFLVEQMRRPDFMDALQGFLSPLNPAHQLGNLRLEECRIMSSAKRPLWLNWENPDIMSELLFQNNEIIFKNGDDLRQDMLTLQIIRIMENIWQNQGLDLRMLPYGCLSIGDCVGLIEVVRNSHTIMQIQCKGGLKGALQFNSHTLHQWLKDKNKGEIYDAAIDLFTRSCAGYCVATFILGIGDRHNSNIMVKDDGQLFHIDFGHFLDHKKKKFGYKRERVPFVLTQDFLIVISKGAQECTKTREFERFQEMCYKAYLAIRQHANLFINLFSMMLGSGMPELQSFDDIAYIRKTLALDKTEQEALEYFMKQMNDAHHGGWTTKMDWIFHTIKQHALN

| SMILES | IC50 |
| --- | --- |
| CCc1ncnc(-c2ccc(C(=O)N3CCC4(CCN(C)CC4)CC3)c(C)c2)c1C#Cc1ccc(N)nc1 [Example E-97] | 0.367 µM |
| CCc1ncnc(-c2ccc(C(=O)N3CCC(N4CCCCCC4)CC3)c(C)c2)c1C#Cc1ccc(N)nc1 [Example E-102] | 0.289 µM |
| CCc1ncnc(-c2ccc(C(=O)N(C)OC)c(C)c2)c1C#Cc1ccc(N)nc1 [Example E-104] | 0.0719 µM |
| CCc1ncnc(-c2ccc(C(=O)N(C)C3CCS(=O)(=O)C3)c(C)c2)c1C#Cc1ccc(N)nc1 (stereo not drawn) [Example E-105] | 0.0517 µM |
| CCOC(=O)N1CCN(C(=O)c2ccc(-c3ncnc(CC)c3C#Cc3ccc(N)nc3)cc2C)CC1 [Example E-107] | 0.0629 µM |
| CCc1ncnc(-c2ccc(C(=O)N3CCN(C(C)=O)CC3)c(C)c2)c1C#Cc1ccc(N)nc1 [Example E-108] | 0.0715 µM |
| CCc1ncnc(-c2ccc(C(=O)N3CCC(N4CCCCC4)CC3)c(C)c2)c1C#Cc1ccc(N)nc1 [Example E-109] | 0.259 µM |
| CCc1ncnc(-c2ccc(C(=O)N3CCC4(CCN(C)C4)C3)c(C)c2)c1C#Cc1ccc(N)nc1 (stereo not drawn) [Example E-112] | 0.249 µM |
| CCc1ncnc(-c2ccc(C(=O)N3CCN(CC4CCCCC4)CC3)c(C)c2)c1C#Cc1ccc(N)nc1 [Example E-113] | 0.414 µM |
| CCc1ncnc(-c2ccc(C(=O)N3CCN(Cc4ccccc4)CC3)c(C)c2)c1C#Cc1ccc(N)nc1 [Example E-115] | 0.154 µM |
| CCc1ncnc(-c2ccc(C(=O)N3CCN(CC4CC4)CC3)c(C)c2)c1C#Cc1ccc(N)nc1 [Example E-116] | 0.11 µM |
| CCc1ncnc(-c2ccc(C(=O)N3CCC4(CC3)OCCCO4)c(C)c2)c1C#Cc1ccc(N)nc1 [Example E-117] | 0.0735 µM |
| CCc1ncnc(-c2ccc(C(=O)N3CCC(C4CCN(C)CC4)CC3)c(C)c2)c1C#Cc1ccc(N)nc1 [Example E-119] | 0.281 µM |
| CCc1ncnc(-c2ccc(C(=O)NC3CCCN(C)C3)c(C)c2)c1C#Cc1ccc(N)nc1 (stereo not drawn) [Example E-120] | 0.349 µM |
| CCc1ncnc(-c2ccc(C(=O)N3CC[S+]([O-])CC3)c(C)c2)c1C#Cc1ccc(N)nc1 [Example E-121] | 0.0639 µM |
| CCc1ncnc(-c2ccc(C(=O)N3CCNCC3)c(C)c2)c1C#Cc1ccc(N)nc1 [Example E-127] | 0.158 µM |
| CCc1ncnc(-c2ccc(C(=O)N(C)O)c(C)c2)c1C#Cc1ccc(N)nc1 [Example E-128] | 0.0372 µM |
| CCc1ncnc(-c2ccc(C(=O)N3CCCN(C)CC3)c(C)c2)c1C#Cc1ccc(N)nc1 [Example E-129] | 0.237 µM |
| CCc1ncnc(-c2ccc(C(=O)N3CCN(c4ccccn4)CC3)c(C)c2)c1C#Cc1ccc(N)nc1 [Example E-130] | 0.0691 µM |
| CCc1ncnc(-c2ccc(C(=O)N3CCN(c4ccncc4)CC3)c(C)c2)c1C#Cc1ccc(N)nc1 [Example E-131] | 0.158 µM |
| CCc1ncnc(-c2ccc(C(=O)N3CCC(O)CC3)c(C)c2)c1C#Cc1ccc(N)nc1 [Example E-132] | 0.0456 µM |
| CCc1ncnc(-c2ccc(C(=O)N3CCCOCC3)c(C)c2)c1C#Cc1ccc(N)nc1 [Example E-133] | 0.0779 µM |
| CCc1ncnc(-c2ccc(C(=O)NCC3(C)COC3)c(C)c2)c1C#Cc1ccc(N)nc1 [Example E-134] | 0.0449 µM |
| CCc1ncnc(-c2ccc(C(=O)N3CCN(c4ccccc4)CC3)c(C)c2)c1C#Cc1ccc(N)nc1 [Example E-135] | 0.149 µM |

| SMILES | IC50 |
| --- | --- |
| CCc1ncnc(-c2ccc(C(=O)N3CCN4CCC[C@@H]4C3)c(Cl)c2)c1C#Cc1ccc(N)nc1 [Example E-139] | 0.16 µM |
| CCc1ncnc(-c2ccc(C(=O)N3CCN4CCC[C@@H]4C3)c(F)c2)c1C#Cc1ccc(N)nc1 [Example E-140] | 0.199 µM |
| CCc1ncnc(-c2ccc(C(=O)N3CCN4CCC[C@H]4C3)c(Cl)c2)c1C#Cc1ccc(N)nc1 [Example E-141] | 0.26 µM |
| CCc1ncnc(-c2ccc(C(=O)N3CCN4CCC[C@H]4C3)c(F)c2)c1C#Cc1ccc(N)nc1 [Example E-142] | 0.107 µM |
| CCc1ncnc(-c2ccc(C(=O)N3CCN4CCCC[C@H]4C3)c(Cl)c2)c1C#Cc1ccc(N)nc1 [Example E-143] | 0.127 µM |
| CCc1ncnc(-c2ccc(C(=O)N3CCN4CCCC[C@H]4C3)c(F)c2)c1C#Cc1ccc(N)nc1 [Example E-144] | 0.169 µM |
| CCc1ncnc(-c2ccc(C(=O)N3CCN4CCCC[C@@H]4C3)c(F)c2)c1C#Cc1ccc(N)nc1 [Example E-145] | 0.358 µM |
| CCc1ncnc(-c2cc(F)c(C(=O)N3CCN(CCCS(C)(=O)=O)CC3)c(F)c2)c1C#Cc1ccc(N)nc1 [Example E-146] | 0.0458 µM |
| CCc1ncnc(-c2cc(F)c(C(=O)N3CCn4ccnc4C3)c(F)c2)c1C#Cc1ccc(N)nc1 [Example E-147] | 0.0557 µM |
| CCc1ncnc(-c2cc(F)c(C(=O)N3CCn4cnnc4C3)c(F)c2)c1C#Cc1ccc(N)nc1 [Example E-148] | 0.0706 µM |
| CCc1ncnc(-c2cc(F)c(C(=O)N3CCn4c(C)cnc4C3)c(F)c2)c1C#Cc1ccc(N)nc1 [Example E-149] | 0.0858 µM |
| CCc1ncnc(-c2cc(F)c(C(=O)N3CCC4(CC3)COC4)c(F)c2)c1C#Cc1ccc(N)nc1 [Example E-150] | 0.12 µM |
| CCc1ncnc(-c2cc(F)c(C(=O)N3CCn4cnnc4C3)c(Cl)c2)c1C#Cc1ccc(N)nc1 [Example E-156] | 0.0183 µM |
| CCc1ncnc(-c2cc(F)c(C(=O)N3CCn4c(C)cnc4C3)c(Cl)c2)c1C#Cc1ccc(N)nc1 [Example E-157] | 0.0375 µM |
| CCc1ncnc(-c2cc(F)c(C(=O)N3CCC4(CC3)COC4)c(Cl)c2)c1C#Cc1ccc(N)nc1 [Example E-158] | 0.122 µM |
| CCc1ncnc(-c2cc(F)c(C(=O)N3CCN(CCNS(C)(=O)=O)CC3)c(Cl)c2)c1C#Cc1ccc(N)nc1 [Example E-159] | 0.0258 µM |
| CCc1ncnc(-c2cc(F)c(C(=O)N3CCN(C4CCC4)CC3)c(Cl)c2)c1C#Cc1ccc(N)nc1 [Example E-160] | 0.115 µM |
| CCc1ncnc(-c2cc(F)c(C(=O)N3CCC4(CC3)CNC4)c(F)c2)c1C#Cc1ccc(N)nc1 [Example E-161] | 0.925 µM |
| CCc1ncnc(-c2cc(F)c(C(=O)N3CCC4(CC3)CNC4)c(Cl)c2)c1C#Cc1ccc(N)nc1 [Example E-162] | 0.54 µM |
| CCc1ncnc(-c2ccc(C(=O)N3CCn4c(COC)nnc4C3)c(F)c2)c1C#Cc1ccc(N)nc1 [Example E-163] | 0.0508 µM |
| CCc1ncnc(-c2ccc(C(=O)N3CCC4(CC3)COC4)c(F)c2)c1C#Cc1ccc(N)nc1 [Example E-164] | 0.154 µM |
| C#CCN1CCN(C(=O)c2ccc(-c3ncnc(CC)c3C#Cc3ccc(N)nc3)cc2F)CC1 [Example E-165] | 0.178 µM |
| CCc1ncnc(-c2ccc(C(=O)N3CCC(F)(F)CC3)c(F)c2)c1C#Cc1ccc(N)nc1 [Example E-166] | 0.154 µM |
| CCc1ncnc(-c2ccc(C(=O)NCCN3CCNCC3)c(F)c2)c1C#Cc1ccc(N)nc1 [Example E-167] | 0.157 µM |

| SMILES | IC50 |
| --- | --- |
| CCc1ncnc(-c2ccc(C(=O)NCC3CCNCC3)c(F)c2)c1C#Cc1ccc(N)nc1 [Example E-168] | 0.373 µM |
| CCc1ncnc(-c2ccc(C(=O)N(C)C3CCOCC3)c(F)c2)c1C#Cc1ccc(N)nc1 [Example E-169] | 0.07 µM |
| CCc1ncnc(-c2cc(F)c(C(=O)N3CCn4c(COC)nnc4C3)c(F)c2)c1C#Cc1ccc(N)nc1 [Example E-170] | 0.0965 µM |
| CCc1ncnc(-c2cc(F)c(C(=O)NCCN3CCNCC3)c(F)c2)c1C#Cc1ccc(N)nc1 [Example E-174] | 0.165 µM |
| CCc1ncnc(-c2cc(F)c(C(=O)NCC3CCNCC3)c(F)c2)c1C#Cc1ccc(N)nc1 [Example E-175] | 0.163 µM |
| CCc1ncnc(-c2cc(F)c(C(=O)N(C)C3CCN(C)CC3)c(F)c2)c1C#Cc1ccc(N)nc1 [Example E-176] | 0.491 µM |
| CCc1ncnc(-c2ccc(C(=O)N3CCC(C(C)(C)O)CC3)c(F)c2)c1C#Cc1ccc(NC)nc1 [Example E-177] | 0.337 µM |
| CCc1ncnc(-c2ccc(C(=O)N3CCC(N4CCOCC4)CC3)c(F)c2)c1C#Cc1ccc(NC)nc1 [Example E-178] | 0.335 µM |
| CCc1ncnc(-c2ccc(C(=O)N3CCN(C4CCOCC4)CC3)c(F)c2)c1C#Cc1ccc(NC)nc1 [Example E-179] | 0.276 µM |
| CCc1ncnc(-c2ccc(C(=O)N3CC[C@@H](N(C)C)C3)c(F)c2)c1C#Cc1ccc(NC)nc1 [Example E-180] | 0.357 µM |
| CCc1ncnc(-c2ccc(C(=O)N3CC[C@H](N(C)C)C3)c(F)c2)c1C#Cc1ccc(NC)nc1 [Example E-181] | 0.275 µM |
| CCc1ncnc(-c2ccc(C(=O)N3CCN(C)CC3)c(F)c2)c1C#Cc1ccc(NC)nc1 [Example E-182] | 0.247 µM |
| CCc1ncnc(-c2ccc(C(=O)N3CCC(N4CCN(C)CC4)CC3)c(F)c2)c1C#Cc1ccc(NC)nc1 [Example E-183] | 0.308 µM |
| CCc1ncnc(-c2ccc(C(=O)N3CCC(C(C)(C)O)CC3)c(Cl)c2)c1C#Cc1ccc(NC)nc1 [Example E-184] | 0.399 µM |
| CCc1ncnc(-c2ccc(C(=O)N3CCC(N4CCOCC4)CC3)c(Cl)c2)c1C#Cc1ccc(NC)nc1 [Example E-185] | 0.202 µM |
| CCc1ncnc(-c2ccc(C(=O)N3CCN(C4CCOCC4)CC3)c(Cl)c2)c1C#Cc1ccc(NC)nc1 [Example E-186] | 0.325 µM |
| CCc1ncnc(-c2ccc(C(=O)N3CCN(CC(F)F)CC3)c(Cl)c2)c1C#Cc1ccc(NC)nc1 [Example E-187] | 0.162 µM |
| CCc1ncnc(-c2ccc(C(=O)N3CC[C@@H](N(C)C)C3)c(Cl)c2)c1C#Cc1ccc(NC)nc1 [Example E-188] | 0.356 µM |
| CCc1ncnc(-c2ccc(C(=O)N3CCN(CC)CC3)c(Cl)c2)c1C#Cc1ccc(NC)nc1 [Example E-189] | 0.186 µM |
| CCc1ncnc(-c2ccc(C(=O)N3CC[C@H](N(C)C)C3)c(Cl)c2)c1C#Cc1ccc(NC)nc1 [Example E-190] | 0.175 µM |
| CCc1ncnc(-c2ccc(C(=O)N3CCN(C)CC3)c(Cl)c2)c1C#Cc1ccc(NC)nc1 [Example E-191] | 0.142 µM |
| CCc1ncnc(-c2ccc(C(=O)N3CCC(N4CCN(C)CC4)CC3)c(Cl)c2)c1C#Cc1ccc(NC)nc1 [Example E-192] | 0.334 µM |
| CCc1ncnc(-c2cc(Cl)c(C(=O)N3CCN4CCC[C@H]4C3)c(Cl)c2)c1C#Cc1ccc(N)nc1 [Example E-194] | 0.129 µM |
| CCc1ncnc(-c2cc(Cl)c(C(=O)N3CCN(C)C(=O)C3)c(Cl)c2)c1C#Cc1ccc(N)nc1 [Example E-195] | 0.0203 µM |
